We go through three molecules from patent US11013717B1, “Methods and compositions for treating cancer using SERCA pump inhibitors” (priority 2018, dated 2021).

In the assay the test system is CD8+ T-cells isolated from human PBMCs. The assay is described as follows: Activation of anti-CD3/anti-CD28 stimulated CD8+ T-cells treated with SERCA inhibitors, cytokine release (IFNγ, TNFα) by intracellular staining flow cytometry. In kind it is cell-based. The conditions noted are these: for Fold Change % IFNγ+ Cells (Normalized to Bead Stimulated Only): overnight, anti-CD3/anti-CD28 bead stimulated human CD8+ T-cells; for T cell activation / interferon gamma (IFNγ) production / secretion by CD8+ T cells: human CD8+ T-cells stimulated with anti-CD3/anti-CD28 beads, overnight incubation, thapsigargin 1.5 μM, cyclopiazonic acid 3 μM, NS-1619 30-100 μM; for T cell activation: activation measured by cytokine release. Here is the method: CD8+ T-cells were isolated from human PBMCs using negative magnetic bead selection (Stemcell Technologies). Cells stimulated with anti-CD3/anti-CD28 beads (Life Technologies) and were treated with different SERCA inhibitors: thapsigargin (1.5 μM), cyclopiazonic acid (3 μM), and NS-1619 (30-100 μM). All incubations were done overnight. Subsequent activation was measured by cytokine release using intracellular staining flow cytometry of IFNγ and TNFα, using fluorescently labeled antibodies (Biolegend).
On the technique in general: In flow cytometry, cells or beads pass a laser one at a time.

As for `O=c1[nH]c2cc(C(F)(F)F)ccc2n1-c1cc(C(F)(F)F)ccc1O` [NS-1619], the T cell activation entry was “led to T cell activation” and the “interferon gamma (IFNγ) production / secretion by CD8+ T cells” value is on record as “increased”. In addition, under “30 μM”, the “Fold Change % IFNγ+ Cells (Normalized to Bead Stimulated Only)” value worked out at 1.1 fold. For the setting “100 μM”, the “Fold Change % IFNγ+ Cells (Normalized to Bead Stimulated Only)” value turned out to be 2.68 fold.
Take `CC(=O)C1=C(O)[C@@H]2[C@H]3c4c[nH]c5cccc(c45)C[C@H]3C(C)(C)N2C1=O` [cyclopiazonic acid]: the “Fold Change % IFNγ+ Cells (Normalized to Bead Stimulated Only)” value (3 μM) was 2.38 fold.
Consider `C/C=C(/C)C(=O)O[C@H]1C(C)=C2[C@H]([C@@H]1OC(=O)CCCCCCC)[C@@](C)(OC(C)=O)C[C@H](OC(=O)CCC)[C@@]1(O)[C@H]2OC(=O)[C@@]1(C)O` [thapsigargin], for which the T cell activation entry is on record as “led to T cell activation” and the “interferon gamma (IFNγ) production / secretion by CD8+ T cells” value is “increased”. For the same molecule, the “Fold Change % IFNγ+ Cells (Normalized to Bead Stimulated Only)” value (1.5 μM) amounted to 2.08 fold.
